Source: the kinase profiling compilation of Christmann-Franck et al. (2016)
Each block holds one compound with its values, some of them ahead of it.

Legend:
Assay in all cases: KINOMEscan competition binding
Conditions in all cases: compound 10.0 µM
[1] = molecular target: CDK11B (human) (UniProt P21127)
[2] = molecular target: STK36 (human) (UniProt Q9NRP7)
[3] = molecular target: LYN (human) (UniProt P07948)
[4] = molecular target: PRKD3 (human) (UniProt O94806)
[5] = molecular target: EPHA6 (human) (UniProt Q9UF33)
[6] = molecular target: FGFR1 (human) (UniProt P11362)
[7] = molecular target: BMPR1B (human) (UniProt O00238)
[8] = molecular target: PHKG1 (human) (UniProt Q16816)
[9] = molecular target: BLK (human) (UniProt P51451)
[10] = molecular target: STK16 (human) (UniProt O75716)
[11] = system: PIK3CA (human), P42336 [E545K]
[12] = molecular target: RIOK3 (human) (UniProt O14730)
[13] = molecular target: EPHA5 (human) (UniProt P54756)
[14] = molecular target: OXSR1 (human) (UniProt O95747)
[15] = molecular target: PHKG2 (human) (UniProt P15735)
[16] = molecular target: PLK2 (human) (UniProt Q9NYY3)
[17] = molecular target: ACVRL1 (human) (UniProt P37023)
[18] = molecular target: SRMS (human) (UniProt Q9H3Y6)
[19] = molecular target: CDK18 (human) (UniProt Q07002)
[20] = molecular target: NEK7 (human) (UniProt Q8TDX7)
[21] = molecular target: RIOK2 (human) (UniProt Q9BVS4)
[22] = molecular target: EPHB3 (human) (UniProt P54753)
[23] = molecular target: CHEK1 (human) (UniProt O14757)
[24] = molecular target: BMX (human) (UniProt P51813)
[25] = molecular target: BMP2K (human) (UniProt Q9NSY1)
[26] = molecular target: CDKL2 (human) (UniProt Q92772)
[27] = system: ABL1 (human), P00519 [Y253F]
[28] = molecular target: TXK (human) (UniProt P42681)
[29] = molecular target: PDPK1 (human) (UniProt O15530)
[30] = molecular target: FLT1 (human) (UniProt P17948)
[31] = molecular target: CDK16 (human) (UniProt Q00536)
[32] = molecular target: MST4 (human) (UniProt Q9P289)
[33] = molecular target: SLK (human) (UniProt Q9H2G2)
[34] = molecular target: MKNK1 (human) (UniProt Q9BUB5)
[35] = molecular target: DMPK (human) (UniProt Q09013)
[36] = system: BRAF (human), P15056 [V600E]
[37] = system: ABL1 (human), P00519 [H396P]
[38] = molecular target: AURKB (human) (UniProt Q96GD4)
[39] = molecular target: RET (human) (UniProt P07949)
[40] = molecular target: PRKG2 (human) (UniProt Q13237)
[41] = system: PIK3CA (human), P42336 [H1047Y]
[42] = molecular target: EPHA2 (human) (UniProt P29317)

Sequence of DMPK (human) (Q09013 whole entry, looked up): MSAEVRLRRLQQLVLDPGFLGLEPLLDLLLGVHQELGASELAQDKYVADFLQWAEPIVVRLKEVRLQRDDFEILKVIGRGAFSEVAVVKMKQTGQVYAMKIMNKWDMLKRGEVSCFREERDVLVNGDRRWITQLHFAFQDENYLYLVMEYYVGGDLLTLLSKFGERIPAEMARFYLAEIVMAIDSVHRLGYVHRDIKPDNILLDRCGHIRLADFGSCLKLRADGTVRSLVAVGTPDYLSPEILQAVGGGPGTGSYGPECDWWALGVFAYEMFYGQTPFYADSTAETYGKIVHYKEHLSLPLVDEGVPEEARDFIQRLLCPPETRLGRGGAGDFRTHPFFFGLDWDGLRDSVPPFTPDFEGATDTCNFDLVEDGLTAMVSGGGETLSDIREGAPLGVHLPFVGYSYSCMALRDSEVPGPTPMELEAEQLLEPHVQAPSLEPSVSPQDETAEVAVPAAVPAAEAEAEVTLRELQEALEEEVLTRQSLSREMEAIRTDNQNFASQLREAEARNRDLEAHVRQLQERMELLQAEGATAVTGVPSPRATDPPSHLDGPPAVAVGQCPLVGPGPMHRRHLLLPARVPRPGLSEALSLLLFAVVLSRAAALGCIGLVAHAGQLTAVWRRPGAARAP
Sequence of PRKD3 (human) (O94806 whole entry, looked up): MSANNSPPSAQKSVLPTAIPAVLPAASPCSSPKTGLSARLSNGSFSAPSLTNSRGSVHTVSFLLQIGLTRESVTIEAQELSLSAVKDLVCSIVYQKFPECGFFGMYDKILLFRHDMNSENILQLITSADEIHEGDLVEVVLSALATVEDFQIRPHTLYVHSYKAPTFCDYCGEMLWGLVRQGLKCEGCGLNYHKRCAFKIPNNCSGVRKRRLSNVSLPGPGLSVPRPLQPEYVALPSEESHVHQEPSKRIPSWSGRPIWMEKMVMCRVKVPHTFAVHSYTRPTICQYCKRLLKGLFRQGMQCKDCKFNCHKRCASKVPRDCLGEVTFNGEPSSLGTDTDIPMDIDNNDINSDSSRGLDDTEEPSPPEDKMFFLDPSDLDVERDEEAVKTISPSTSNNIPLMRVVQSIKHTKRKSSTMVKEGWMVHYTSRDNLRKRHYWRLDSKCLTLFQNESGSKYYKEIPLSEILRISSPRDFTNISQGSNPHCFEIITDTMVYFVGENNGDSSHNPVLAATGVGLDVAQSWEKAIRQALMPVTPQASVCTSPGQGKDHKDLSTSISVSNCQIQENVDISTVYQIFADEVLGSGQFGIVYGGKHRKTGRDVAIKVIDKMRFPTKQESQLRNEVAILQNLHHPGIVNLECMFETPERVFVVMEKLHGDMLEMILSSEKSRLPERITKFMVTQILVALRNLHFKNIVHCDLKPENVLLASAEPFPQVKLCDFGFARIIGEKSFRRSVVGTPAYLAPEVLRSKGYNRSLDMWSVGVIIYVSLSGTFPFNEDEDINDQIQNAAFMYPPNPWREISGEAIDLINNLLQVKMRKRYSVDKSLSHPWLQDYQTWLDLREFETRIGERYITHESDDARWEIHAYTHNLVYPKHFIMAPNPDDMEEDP
Sequence of EPHA6 (human) (Q9UF33 whole entry, looked up): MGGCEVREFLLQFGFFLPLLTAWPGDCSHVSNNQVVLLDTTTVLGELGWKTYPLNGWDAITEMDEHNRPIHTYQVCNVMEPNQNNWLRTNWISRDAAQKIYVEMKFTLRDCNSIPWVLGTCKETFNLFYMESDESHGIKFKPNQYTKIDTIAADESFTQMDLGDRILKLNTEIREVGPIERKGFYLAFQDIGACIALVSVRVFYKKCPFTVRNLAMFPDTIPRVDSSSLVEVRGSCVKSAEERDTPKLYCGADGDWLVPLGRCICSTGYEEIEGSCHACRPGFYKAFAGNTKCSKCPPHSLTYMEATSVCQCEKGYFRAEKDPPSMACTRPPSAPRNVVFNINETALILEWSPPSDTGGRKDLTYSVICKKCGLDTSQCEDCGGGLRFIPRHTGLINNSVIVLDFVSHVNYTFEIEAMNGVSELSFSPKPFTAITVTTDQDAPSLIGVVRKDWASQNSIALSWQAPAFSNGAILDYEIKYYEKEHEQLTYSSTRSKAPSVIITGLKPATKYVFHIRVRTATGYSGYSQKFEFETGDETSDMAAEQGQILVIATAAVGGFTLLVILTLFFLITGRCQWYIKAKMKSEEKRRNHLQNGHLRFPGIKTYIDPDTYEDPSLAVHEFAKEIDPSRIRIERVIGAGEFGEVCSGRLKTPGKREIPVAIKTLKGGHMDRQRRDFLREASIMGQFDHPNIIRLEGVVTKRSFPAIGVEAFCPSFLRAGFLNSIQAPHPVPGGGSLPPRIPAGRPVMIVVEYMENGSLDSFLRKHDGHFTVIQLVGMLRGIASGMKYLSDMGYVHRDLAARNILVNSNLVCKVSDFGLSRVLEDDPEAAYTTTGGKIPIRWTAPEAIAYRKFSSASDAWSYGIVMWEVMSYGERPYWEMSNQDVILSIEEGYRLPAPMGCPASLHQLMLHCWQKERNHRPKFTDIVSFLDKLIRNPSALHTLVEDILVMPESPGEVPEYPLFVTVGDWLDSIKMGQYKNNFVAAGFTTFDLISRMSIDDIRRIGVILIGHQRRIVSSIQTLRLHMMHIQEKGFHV
Sequence of CDK18 (human) (Q07002 whole entry, looked up): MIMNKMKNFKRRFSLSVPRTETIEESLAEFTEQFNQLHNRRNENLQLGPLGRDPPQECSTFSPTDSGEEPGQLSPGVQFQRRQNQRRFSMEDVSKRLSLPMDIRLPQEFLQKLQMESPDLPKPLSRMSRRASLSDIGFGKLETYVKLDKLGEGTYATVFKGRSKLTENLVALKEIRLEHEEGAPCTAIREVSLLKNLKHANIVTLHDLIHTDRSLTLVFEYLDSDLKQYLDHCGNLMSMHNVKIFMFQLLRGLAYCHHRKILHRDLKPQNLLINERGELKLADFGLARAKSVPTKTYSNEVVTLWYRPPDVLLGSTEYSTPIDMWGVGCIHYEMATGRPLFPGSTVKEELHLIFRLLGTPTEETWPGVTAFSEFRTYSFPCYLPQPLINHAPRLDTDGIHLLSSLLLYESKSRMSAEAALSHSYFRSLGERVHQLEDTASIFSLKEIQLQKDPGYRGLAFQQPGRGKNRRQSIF
Sequence of SRMS (human) (Q9H3Y6 whole entry, looked up): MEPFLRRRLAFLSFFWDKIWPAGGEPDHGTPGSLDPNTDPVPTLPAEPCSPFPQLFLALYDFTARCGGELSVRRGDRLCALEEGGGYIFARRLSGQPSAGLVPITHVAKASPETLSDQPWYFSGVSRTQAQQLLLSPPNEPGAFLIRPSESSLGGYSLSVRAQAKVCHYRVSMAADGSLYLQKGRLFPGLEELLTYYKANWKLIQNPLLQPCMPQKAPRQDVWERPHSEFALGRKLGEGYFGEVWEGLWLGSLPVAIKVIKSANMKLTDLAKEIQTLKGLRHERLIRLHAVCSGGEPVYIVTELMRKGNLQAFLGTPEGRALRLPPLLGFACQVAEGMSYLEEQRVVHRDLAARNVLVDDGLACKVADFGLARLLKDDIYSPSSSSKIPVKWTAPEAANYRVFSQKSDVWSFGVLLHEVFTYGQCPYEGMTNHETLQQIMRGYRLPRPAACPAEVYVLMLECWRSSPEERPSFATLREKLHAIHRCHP
Sequence of FLT1 (human) (P17948 whole entry, looked up): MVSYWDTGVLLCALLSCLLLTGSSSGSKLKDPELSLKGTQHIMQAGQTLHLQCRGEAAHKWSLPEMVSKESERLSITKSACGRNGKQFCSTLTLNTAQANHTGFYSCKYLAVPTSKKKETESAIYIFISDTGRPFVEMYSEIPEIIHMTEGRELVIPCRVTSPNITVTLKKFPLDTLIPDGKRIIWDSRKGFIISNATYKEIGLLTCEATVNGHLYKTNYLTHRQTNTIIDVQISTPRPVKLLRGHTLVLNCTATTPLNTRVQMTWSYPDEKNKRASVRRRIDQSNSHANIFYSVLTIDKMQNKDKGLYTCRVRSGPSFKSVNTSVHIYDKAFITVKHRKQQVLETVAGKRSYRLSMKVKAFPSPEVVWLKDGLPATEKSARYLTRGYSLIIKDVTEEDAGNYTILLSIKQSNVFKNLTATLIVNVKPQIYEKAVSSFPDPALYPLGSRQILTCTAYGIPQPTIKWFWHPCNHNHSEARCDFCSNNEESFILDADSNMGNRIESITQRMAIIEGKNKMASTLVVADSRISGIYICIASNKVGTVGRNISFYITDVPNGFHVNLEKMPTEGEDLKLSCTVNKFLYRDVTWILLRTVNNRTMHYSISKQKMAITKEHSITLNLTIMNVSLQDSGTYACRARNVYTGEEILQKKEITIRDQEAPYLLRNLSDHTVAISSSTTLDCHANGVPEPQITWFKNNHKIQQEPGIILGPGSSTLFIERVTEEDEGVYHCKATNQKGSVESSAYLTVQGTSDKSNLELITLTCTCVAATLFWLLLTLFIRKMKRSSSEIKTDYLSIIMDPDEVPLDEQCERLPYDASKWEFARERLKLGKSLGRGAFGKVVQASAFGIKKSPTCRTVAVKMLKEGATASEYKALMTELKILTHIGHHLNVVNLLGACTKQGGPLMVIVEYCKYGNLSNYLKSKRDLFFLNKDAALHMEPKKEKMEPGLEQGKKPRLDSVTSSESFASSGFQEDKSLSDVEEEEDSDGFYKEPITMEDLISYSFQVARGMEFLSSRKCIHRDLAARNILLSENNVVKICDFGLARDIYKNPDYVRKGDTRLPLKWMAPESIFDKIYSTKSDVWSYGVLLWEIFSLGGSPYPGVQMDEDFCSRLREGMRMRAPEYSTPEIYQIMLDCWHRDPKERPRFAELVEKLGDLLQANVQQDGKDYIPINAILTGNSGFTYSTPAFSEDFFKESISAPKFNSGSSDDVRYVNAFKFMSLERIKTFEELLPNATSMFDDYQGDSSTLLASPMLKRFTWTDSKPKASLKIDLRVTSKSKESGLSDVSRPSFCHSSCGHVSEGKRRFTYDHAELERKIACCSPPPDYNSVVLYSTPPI

kinase still bound, per cent of control [1]: 100% | kinase still bound, per cent of control [2]: 53% | kinase still bound, per cent of control [3]: 6.2% | kinase still bound, per cent of control [4]: 70% | kinase still bound, per cent of control [5]: 34% | kinase still bound, per cent of control [6]: 18% | kinase still bound, per cent of control [7]: 50% | kinase still bound, per cent of control [8]: 15% | kinase still bound, per cent of control [9]: 0.05% | kinase still bound, per cent of control [10]: 0.8% | kinase still bound, per cent of control [11]: 100% | kinase still bound, per cent of control [12]: 8.4% | kinase still bound, per cent of control [13]: 30% | kinase still bound, per cent of control [14]: 58% | kinase still bound, per cent of control [15]: 5.6% | kinase still bound, per cent of control [16]: 87% | kinase still bound, per cent of control [17]: 100% | kinase still bound, per cent of control [18]: 13% | kinase still bound, per cent of control [19]: 12% | kinase still bound, per cent of control [20]: 100% | kinase still bound, per cent of control [21]: 18% | kinase still bound, per cent of control [22]: 100% | kinase still bound, per cent of control [23]: 32% | kinase still bound, per cent of control [24]: 42% | kinase still bound, per cent of control [25]: 0.65% | kinase still bound, per cent of control [26]: 6.1% | kinase still bound, per cent of control [27]: 4.2% | kinase still bound, per cent of control [28]: 15% | kinase still bound, per cent of control [29]: 20% | kinase still bound, per cent of control [30]: 1.3% | kinase still bound, per cent of control [31]: 0% | kinase still bound, per cent of control [32]: 35% | kinase still bound, per cent of control [33]: 44% | kinase still bound, per cent of control [34]: 51% | kinase still bound, per cent of control [35]: 100% | kinase still bound, per cent of control [36]: 84% | kinase still bound, per cent of control [37]: 4.5% | kinase still bound, per cent of control [38]: 2.8% | kinase still bound, per cent of control [39]: 0% | kinase still bound, per cent of control [40]: 24% | kinase still bound, per cent of control [41]: 100% | kinase still bound, per cent of control [42]: 35%
Compound: O=C1Nc2cc(Br)ccc2/C1=C1/Nc2ccccc2/C1=N\O

kinase still bound, per cent of control [1]: 100% | kinase still bound, per cent of control [2]: 100% | kinase still bound, per cent of control [3]: 74% | kinase still bound, per cent of control [4]: 100% | kinase still bound, per cent of control [5]: 100% | kinase still bound, per cent of control [6]: 100% | kinase still bound, per cent of control [7]: 89% | kinase still bound, per cent of control [8]: 97% | kinase still bound, per cent of control [10]: 28% | kinase still bound, per cent of control [11]: 100% | kinase still bound, per cent of control [12]: 86% | kinase still bound, per cent of control [13]: 100% | kinase still bound, per cent of control [14]: 100% | kinase still bound, per cent of control [16]: 100% | kinase still bound, per cent of control [17]: 97% | kinase still bound, per cent of control [18]: 75% | kinase still bound, per cent of control [19]: 89% | kinase still bound, per cent of control [20]: 100% | kinase still bound, per cent of control [21]: 23% | kinase still bound, per cent of control [22]: 100% | kinase still bound, per cent of control [23]: 100% | kinase still bound, per cent of control [24]: 100% | kinase still bound, per cent of control [25]: 100% | kinase still bound, per cent of control [26]: 40% | kinase still bound, per cent of control [27]: 100% | kinase still bound, per cent of control [28]: 100% | kinase still bound, per cent of control [29]: 78% | kinase still bound, per cent of control [30]: 57% | kinase still bound, per cent of control [31]: 15% | kinase still bound, per cent of control [32]: 99% | kinase still bound, per cent of control [33]: 100% | kinase still bound, per cent of control [34]: 100% | kinase still bound, per cent of control [35]: 100% | kinase still bound, per cent of control [36]: 49% | kinase still bound, per cent of control [37]: 75% | kinase still bound, per cent of control [38]: 97% | kinase still bound, per cent of control [39]: 100% | kinase still bound, per cent of control [40]: 100% | kinase still bound, per cent of control [41]: 100% | kinase still bound, per cent of control [42]: 95%
Compound: COc1ccc(CNC(=O)Nc2ncc([N+](=O)[O-])s2)cc1

kinase still bound, per cent of control [1]: 100% | kinase still bound, per cent of control [2]: 100% | kinase still bound, per cent of control [3]: 100% | kinase still bound, per cent of control [4]: 78% | kinase still bound, per cent of control [5]: 100% | kinase still bound, per cent of control [6]: 100% | kinase still bound, per cent of control [7]: 86% | kinase still bound, per cent of control [8]: 100% | kinase still bound, per cent of control [9]: 100% | kinase still bound, per cent of control [10]: 29% | kinase still bound, per cent of control [11]: 100% | kinase still bound, per cent of control [12]: 65% | kinase still bound, per cent of control [13]: 99% | kinase still bound, per cent of control [14]: 100% | kinase still bound, per cent of control [15]: 80% | kinase still bound, per cent of control [16]: 100% | kinase still bound, per cent of control [17]: 100% | kinase still bound, per cent of control [18]: 86% | kinase still bound, per cent of control [19]: 7.4% | kinase still bound, per cent of control [20]: 89% | kinase still bound, per cent of control [21]: 95% | kinase still bound, per cent of control [22]: 100% | kinase still bound, per cent of control [23]: 94% | kinase still bound, per cent of control [24]: 78% | kinase still bound, per cent of control [25]: 58% | kinase still bound, per cent of control [26]: 87% | kinase still bound, per cent of control [27]: 100% | kinase still bound, per cent of control [28]: 100% | kinase still bound, per cent of control [29]: 100% | kinase still bound, per cent of control [30]: 100% | kinase still bound, per cent of control [31]: 0.2% | kinase still bound, per cent of control [32]: 100% | kinase still bound, per cent of control [33]: 8.7% | kinase still bound, per cent of control [34]: 84% | kinase still bound, per cent of control [35]: 98% | kinase still bound, per cent of control [36]: 78% | kinase still bound, per cent of control [37]: 90% | kinase still bound, per cent of control [38]: 96% | kinase still bound, per cent of control [39]: 100% | kinase still bound, per cent of control [40]: 73% | kinase still bound, per cent of control [41]: 100% | kinase still bound, per cent of control [42]: 100%
Compound: Cn1cc(C2=C(c3ccc(Cl)cc3Cl)C(=O)NC2=O)c2ccccc21
